Laboratory results from US20240293420A1, “PHARMACEUTICAL COMPOSITION, PREPARATION, AND PREPARATION METHOD THEREFOR AND USE THEREOF” (WUHAN LL SCIENCE AND TECHNOLOGY DEVELOPMENT CO., LTD., priority 2021, published 2024).
Converted amounts (≈) assume the structure as drawn. “Also recorded” adds a separate entry of the source.

Legend:
[1] = Solubility tests in biological media of SGF, FaSSIF and FeSSIF; type: physicochemical
Description: The instrument used for liquid chromatography analysis was Agilent HPLC 1260 series, and the analytical method is shown in the table below.
The results of solubility tests of crystal forms I, III, and V in biological media of SGF, FaSSIF, and FeSSF are as shown in Table E and FIG. 43. There was little difference in the solubility of the above three crystal forms in different biological media, and the solubility in SGF was higher than 5 mg/mL.

[2] = Crystal form (XRPD) in preparation process of coated tablets; type: physicochemical; settings: samples at stages of wet granulation and tabletting; listed as API
Description: In order to investigate the impact of the preparation process of the preparation on the crystal form, samples were taken at different stages during the preparation process of the coated tablets according to Example 17.3 and analyzed. The analysis results are shown in Table I. The summarized results of the XRPD patterns of the products at each time point for sampling are shown in FIG. 52.
The investigation results are shown in Table J. The XRPD results of the crystal form of the coated tablet, API, and the blank excipient are shown in FIG. 53.

[3] = Crystal form transformation under humidity / drying (XRPD); type: physicochemical; settings: humidity or drying as stated in the value
Description: Crystal form I can be obtained by the preparation method in Example 3. […] (FIG. 29). Combined with the DVS test results (FIG. 30), it can be seen that the mutual transformation between crystal forms I and IV is reversible.
Crystal form IV is a hygroscopic product of crystal form I under high humidity environment, and can be obtained by slurrying crystal form I or crystal form V in a mixed solvent of water/acetone with a water content of 50% to 95%.
Crystal form VI was obtained by slurrying crystal form I or crystal form V at 60° C. in a mixed solvent of water/acetone with a water content of 10% (volume ratio) at 60° C.
Crystal form VIII is a hydrate, but the hydrate is unstable.

[4] = Variable humidity XRPD (VH-XRPD) of crystal form III; type: physicochemical
Description: The instrument parameters are as follows:
The humidity change program settings are as follows: […]

[5] = Dynamic vapor sorption (DVS) test; type: physicochemical
[6] = Pharmacokinetic experiments in Beagles; type: in vivo; settings: Beagle, male, PO, 10 mg/kg, plasma
Description: The present disclosure preferred crystal forms I, III, and V of the compound in the above examples for pharmacokinetic experiments in Beagles, and the relevant experiments are as follows:
Animal: 9 Beagles, male, divided into three groups with 3 in each group, weight ranging from 10 to 13 kg (source & certificate number: Beijing Marshall Biotechnology Co., Ltd., No. 1103182011000161)
Administration mode and dosage: PO: 10 mg/kg
Preparation: 0.5% CMC-Na was used as the solvent, and 400 mg of each of the three different crystal forms of compound A were weighed and added to the corresponding 79 mL of solvent, respectively. The mixture was subjected to ultrasonication for 20 minutes, added with a stirrer, and mixed thoroughly for 3 hours (the storage period from compound preparation to animal administration at room temperature was less than 6 hours). After the drug solution became a homogeneous and fine suspension, which was observed by the naked eye, the solvent was gradually added until the specified volume reached the target concentration. The preparation was stirred for 10 minutes at room temperature before administration, and stirred continuously during administration.
Time points for sampling: the time points for blood sampling in the PO group were 0.167, 0.5, 1, 2, 4, 6, 8, and 24 hours.
Animals in the PO group were fasted overnight except for free access to water before administration, and resumed food supply 4 hours after administration.
After Beagles in the […] were administered, blood was collected from Beagles by jugular vein puncture according to the time points for sampling. About 1.0 mL of blood was collected at each time point and transferred to an anticoagulant EP tube (containing 10 μL of EDTA-K2, 375 mg/mL). The tube was gently inverted three times, stored in an ice box (no more than 30 minutes), and centrifuged at 3200 g for 10 minutes at 4° C. The plasma was transferred to an ultra-low temperature refrigerator and stored until detection.
Sample pretreatment process: 40 μL of sample was taken, and 160 μL of acetonitrile solution containing 0.1% FA and 200 ng/mL of mixed standard solution was added to precipitate the protein. The mixture was vortexed and mixed well, and the sample was centrifuged in a 4° C. centrifuge at 13000 pm for 10 minutes. 100 μL of the supernatant was transferred to another 96 deep well plate, then 100 μL of methanol:water (1:3, v:v) solution containing 0.1% FA was added thereto, and the mixture was shaken and mixed for 10 minutes.
• Ion source: ion electrospray (ESI) • Ionization mode: positive ion mode (Positive) • Detection mode (mode): multiple reaction monitoring (MRM) • Ion spray voltage: 5500 V • Ion spray temperature (turbo ion spray temp): 550° C. • Curtain gas type: nitrogen setting: 35 • Collision cell gas type (CAD gas type): nitrogen setting: medium • Nebulizing gas type (gas 1): nitrogen setting: 55.00 • Auxiliary gas type (gas 2): nitrogen setting: 55.00
• Chromatographic column: poroshell 120 EC-C18 (4.6×50 mm, 2.7 μm) • Mobile phase A: 0.1% formic acid aqueous solution • Mobile phase B: a solution of 0.1% formic acid in methanol • Auto sampler wash solution (rinse port wash solution): 50% methanol • Column temperature: 40° C. • Flow rate: 0.55 mL/min • Auto sampler temperature (sample tray temp): 10° C. • Injection volume: 3 μL • Lift of presser foot (needle stroke): 49 mm • Auto sampler rinse setting (rinse pump setting): rinse port only • Auto sampler rinse mode (rinse mode): before aspiration • Auto sampler rinse volume for needle (rinse volume): 500 μL • Dip time when rinsing the injection needle (rinse dip time): 2 seconds
The data would be analyzed using WinNonlin (version 5.2.1 Pharsight, Mountain View, CA) through a non-compartmental model to obtain PK parameters (selecting Cmax, Tmax, AUClast, T1/2, and other parameters according to different routes of administration).

[7] = Physical and chemical stability of crystal forms at 60° C. (closed) and 40° C./75% RH (open); type: physicochemical
Description: The physical and chemical stability of crystal forms I, III, and V at 60° C. (closed) and 40° C./75% RH (open) for 7 days were investigated respectively.
(closed) and 40° C./75% RH (open) for 3 months were investigated.

XRPD of remaining solid ([1]; FaSSIF, 0.5 h): Unchanged | pH ([1]; FaSSIF, 0.5 h): 6.4 | XRPD of remaining solid ([1]; FaSSIF, 2 h): Unchanged | pH ([1]; FaSSIF, 2 h): 6.4 | XRPD of remaining solid ([1]; FaSSIF, 24 h): Unchanged | pH ([1]; FaSSIF, 24 h): 6.4 | XRPD of remaining solid ([1]; FeSSIF, 0.5 h): Unchanged | pH ([1]; FeSSIF, 0.5 h): 4.9 | Solubility ([1]; FeSSIF, 2 h): 0.088 mg/mL (≈ 176 µM) | XRPD of remaining solid ([1]; FeSSIF, 2 h): Unchanged | pH ([1]; FeSSIF, 2 h): 4.8 | Solubility ([1]; FeSSIF, 24 h): 0.120 mg/mL (≈ 240 µM) | XRPD of remaining solid ([1]; FeSSIF, 24 h): Unchanged | pH ([1]; FeSSIF, 24 h): 4.9 | pH ([1]; SGF, 0.5 h): 1.0 | solubility at 0.5 h ([1]; simulated gastric fluid, thermodynamic from solid, SGF, 0.5 h, visual observation): > 5000 µg/mL | water content at which crystal form III is stable ([4]; from DVS at 40% RH and TGA): above 1.6% | XRPD results ([4]; procedure 6: 0% RH, 720 minutes): Anhydrous crystal form X | XRPD results ([4]; procedure 7: 0% RH, 900 minutes): Anhydrous crystal form X | XRPD results ([4]; procedure 10: 40% RH, 120 minutes): Crystal form III | XRPD results ([4]; procedure 11 (end): 40% RH, 240 minutes): Crystal form III | DVS hygroscopicity [5]: slightly hygroscopic | XRPD before and after the DVS test [5]: no significant change in XRPD | DVS (wt %, 80% RH) ([5]; 25° C., 80% RH): 2.7 wt % | DVS (wt %, 90% RH) ([5]; 25° C., 90% RH): 2.8 wt % | adsorbed water content ([5]; range of 10 to 80% RH): about 1.2% | AUClast [6]: 14454 ± 3182 ng·h/mL | Cmax [6]: 1159 ± 160 ng/mL | T1/2 [6]: 12.9 ± 1.06 h | Tmax [6]: 2.00 ± 0.00 h | Purity - 7 days (peak area %) ([7]; 40° C./75% RH (open)): 99.35 peak area % | Purity - 1 month (peak area %) ([7]; 40° C./75% RH): 99.29 peak area % | Purity - 3 months (peak area %) ([7]; 40° C./75% RH): 99.23 peak area % | XRPD - 3 months ([7]; 40° C./75% RH): Crystal form III | Purity - 7 days (peak area %) ([7]; 60° C. (closed)): 99.35 peak area % | Purity - 1 month (peak area %) ([7]; 60° C.): 99.28 peak area % | Purity - 3 months (peak area %) ([7]; 60° C.): 99.25 peak area % | XRPD - 3 months ([7]; 60° C.): Crystal form III | Initial purity (peak area %) [7]: 99.34 peak area % | Initial purity (peak area %) ([7]; listed as crystal form III): 99.33 peak area %
SMILES: COC(=O)N1CCO[C@@H](Cc2c(-c3c(F)cc(S(N)(=O)=O)cc3F)nc3cc(Cl)ccn23)C1 [Crystal form III, methyl (S)-2-((7-chloro-2-(2,6-difluoro-4-sulfamoylphenyl)imidazo[1,2-a]pyridin-3-yl)methyl)morpholine-4-carboxylate]
Crystal form in preparation process [2]: remained stable; also recorded: Crystal form III | crystal form transformation [3]: quickly absorbed moisture under ambient humidity and became crystal form III again | crystal form at 0% RH ([4]; cycle of 40% RH-0% RH-40% RH at 25° C.): completely dehydrated at 0% RH and transformed into a new crystal form, anhydrous crystal form X
